Experimental findings from patent publication US20200055948A1, “CELLS EXPRESSING A BCMA-TARGETING CHIMERIC ANTIGEN RECEPTOR, AND COMBINATION THERAPY WITH A GAMMA SECRETASE INHIBITOR” (Novartis AG, priority 2017, published 2020) are described below.

One assay relates to shed/soluble BCMA. In words: GSI inhibition of shed/soluble BCMA (sBCMA), ELISA of supernatants after 72 hours, NCI-H929, MM1S, U266B1 (Example 2, Table 30, FIG. 3). The conditions noted are these: for EC50: Homo sapiens, 72 hours, ELISA of supernatants; for efficacious concentrations, rank among the panel of GSIs: inhibition of BCMA shedding and enhancement of membrane BCMA, Table 30. The assay is classed as cell-based, human. The procedure: (§1) FIG. 3 is a panel of graphs comparing soluble/shed BCMA (sBCMA) levels to membrane-bound BCMA (mBCMA) levels in MM1S cell cultures treated with various gamma secretase inhibitors for 72 hours.
(§2) Target human cancer cell lines expressing various levels of human BCMA (NCI-H929^[High], MM1S^[med], U266B1^[low]) were all transduced to constitutively express luciferase, which is used to measure cell viability/survival with the BrightGlo reagent (Promega E2650). Target cells were plated 30,000 cells per well in a 96 well plate (Costar 3904) together with serial dilutions of a panel of gamma secretase inhibitors (Table 29). The plate was incubated at 37° C./5% CO2 for 72 hours, followed by measurements of cell viability (BrightGlo, Promega # E2650) according to vendor protocol. In a replicate set of assay plates, cell culture supernatants were collected by centrifugation and quantified for levels of soluble BCMA by ELISA (R&D Systems, DY193), and the remaining cells were stained with a PE conjugated BCMA antibody (clone 19F2, Biolegend 357504) and analyzed by flow cytometry for BCMA cell surface expression levels.
(§3) Raw OD450 values from the BCMA ELISA were plotted together with the mean fluorescent intensity values from flow cytometry analysis of cells stained with anti-BCMA antibody, and are shown for MM1S cells treated with the various GSIs in FIG. 3. Table 30 summarizes the EC50 results of all the GSIs on the three BCMA-expressing cell lines.

The test system of another assay is membrane BCMA expression. Nature of the assay: GSI enhancement of membrane BCMA (mBCMA) expression, flow cytometry after 72 hours, NCI-H929, MM1S, U266B1 (Example 2, Table 30, FIG. 3). The assay is classed as cell-based. The conditions noted are these: Homo sapiens. The procedure: as §1, §2, §3
Assay [1] relates to BCMA cell surface expression. Nature of the assay: BCMA cell surface expression by flow cytometry with PE conjugated BCMA antibody, with or without GSI (Example 1, FIG. 1). The assay is classed as cell-based, human. Particulars: BCMA-expressing multiple myeloma cell lines. The procedure:
FIG. 1 is a set of histogram plots showing the staining of BCMA-expressing human cancer cell lines, NCI-H929, MM1S, and U266B1, using a PE conjugated anti-BCMA antibody. The cell lines were untreated, or treated with 1.0 μM DAPT or 0.1 μM LY-411,575 before subjected to a flow cytometry analysis.
Human cancer cell lines expressing various levels of human BCMA (NCI-H929^[High] MM1S^[Med], and U266B1^[low]) were all transduced to constitutively express luciferase, which is used to measure cell viability/survival with the BrightGlo reagent (Promega # E2650).
BCMA expressing cell lines were treated overnight with and without GSIs. Cell culture supernatants were collected and quantified for levels of soluble BCMA by ELISA (R&D Systems, # DY193). Additionally, remaining cells were pelleted, stained with a PE conjugated BCMA antibody (clone 19F2, Biolegend #357504) and analyzed by flow cytometry for BCMA cell surface expression levels.
BCMA cell surface expression level was determined by flow cytometry on cell lines with or without GSI treatment.
In general terms: A flow cytometer gives signals particle by particle.

For another assay, the system named is soluble BCMA. In words: Soluble BCMA in supernatants of MM cell lines U266 or RPMI 8226 by sandwich ELISA after 48 hrs GSI (Example 3, FIGS. 5A and 5B). The assay is classed as cell-based, human. Particulars: RPMI 8226 cells treated, 6 μM-100 μM. The procedure: FIGS. 5A and 5B are a pair of graphs showing that a gamma secretase inhibitor reduces soluble BCMA released by MM cell lines. In FIGS. 5A and 5B, the amount of soluble BCMA (pg/ml) as measured by ELISA is plotted for each GSI concentration tested.
MM cell lines U266 or RPMI 8226 were incubated with several concentrations (6 μM-100 μM) of Ly 411575 gamma secretase inhibitor (Miltenyi) for 48 hrs. Supernatants were collected and secreted BCMA was measured using a sandwich ELISA (BCMA/TNFRSF17 ELISA Duo set, R&D Systems).
(In an ELISA, binding on a coated surface is turned into a signal by an enzyme label.)

By EC50 is commonly meant the concentration at which the effect is half-maximal. For `NC(=O)[C@@H](CCC(F)(F)F)N(Cc1ccc(-c2ncon2)cc1F)S(=O)(=O)c1ccc(Cl)cc1` [BMS-708163, (R)-2-((4-chloro-N-(2-fluoro-4-(1,2,4-oxadiazol-3-yl)benzyl)phenyl)sulfonamido)-5,5,5-trifluoropentanamide], the EC50 worked out at 13.3 nM in the assay on shed/soluble BCMA (MM1.S, MM1S cells); 2.5 nM in the assay with shed/soluble BCMA (NCI-H929, H929 cells); 29.8 nM in the assay with shed/soluble BCMA (U266B1 cells); 7.4 nM in the assay on membrane BCMA expression (MM1.S, MM1S cells); 3.6 nM with membrane BCMA expression (NCI-H929, H929 cells); 32.4 nM in the assay on membrane BCMA expression (U266B1 cells).
For the compound `CC(C)(C(=O)NCC(F)(F)C(F)(F)F)C(=O)N[C@@H]1C(=O)Nc2ccccc2-c2ccccc21` [RO4929097], the EC50 in the assay on shed/soluble BCMA (MM1.S, MM1S cells) stood at 4.6 nM; in the assay on shed/soluble BCMA (NCI-H929, H929 cells), 3 nM; in the assay on shed/soluble BCMA (U266B1 cells), 6.2 nM; in the assay with membrane BCMA expression (MM1.S, MM1S cells) it was 3.2 nM; with membrane BCMA expression (NCI-H929, H929 cells) it was 4.4 nM; in the assay with membrane BCMA expression (U266B1 cells), 10.1 nM.
As for `O=C(O)CC[C@H]1CC[C@@](c2cc(F)ccc2F)(S(=O)(=O)c2ccc(Cl)cc2)CC1` [MK-0752, 3-((1S,4R)-4-((4-chlorophenyl)sulfonyl)-4-(2,5-difluorophenyl)cyclohexyl)propanoic acid], the EC50 with shed/soluble BCMA (MM1.S, MM1S cells) stood at 566 nM; in the assay on shed/soluble BCMA (NCI-H929, H929 cells), 269 nM; in the assay on shed/soluble BCMA (U266B1 cells), 1060 nM; in the assay on membrane BCMA expression (MM1.S, MM1S cells) it was 332 nM; in the assay with membrane BCMA expression (NCI-H929, H929 cells), 69.3 nM; in the assay with membrane BCMA expression (U266B1 cells), 1210 nM.
On to `O=S(=O)(N[C@@H](CO)C(C(F)(F)F)C(F)(F)F)c1ccc(Cl)s1` [PF-5212362, (R)-5-chloro-N-(4,4,4-trifluoro-1-hydroxy-3-(trifluoromethyl)butan-2-yl)thiophene-2-sulfonamide], for which the EC50 in the assay with shed/soluble BCMA (MM1.S, MM1S cells) is 121 nM; with shed/soluble BCMA (NCI-H929, H929 cells), 137 nM; in the assay on shed/soluble BCMA (U266B1 cells), 583 nM; with membrane BCMA expression (MM1.S, MM1S cells), 52.2 nM; with membrane BCMA expression (NCI-H929, H929 cells) it was 13.8 nM; in the assay with membrane BCMA expression (U266B1 cells), 560 nM.
For the compound `CCC[C@H](N[C@H]1CCc2cc(F)cc(F)c2C1)C(=O)Nc1cn(C(C)(C)CNCC(C)(C)C)cn1` [PF-3084014, (S)-2-(((S)-6,8-difluoro-1,2,3,4-tetrahydronaphthalen-2-yl)amino)-N-(1-(2-methyl-1-(neopentylamino)propan-2-yl)-1H-imidazol-4-yl)pentanamide], the EC50 amounted to 32.2 nM in the assay on shed/soluble BCMA (MM1.S, MM1S cells); 34.8 nM in the assay with shed/soluble BCMA (NCI-H929, H929 cells); 67.2 nM in the assay with shed/soluble BCMA (U266B1 cells); 36.6 nM with membrane BCMA expression (MM1.S, MM1S cells); 31.6 nM with membrane BCMA expression (NCI-H929, H929 cells); 70.4 nM in the assay with membrane BCMA expression (U266B1 cells).
Regarding `C[C@H](c1ccc(F)cc1CCCC(=O)O)N(c1cc(F)ccc1F)S(=O)(=O)c1ccc(Cl)cc1` [BMS-299897], the EC50 in the assay with shed/soluble BCMA (MM1.S, MM1S cells) came out at 800 nM; in the assay on shed/soluble BCMA (NCI-H929, H929 cells), 528 nM; in the assay on membrane BCMA expression (MM1.S, MM1S cells) it was 485 nM; with membrane BCMA expression (NCI-H929, H929 cells), 152 nM; in the assay on membrane BCMA expression (U266B1 cells) it was 1690 nM. In addition, the “efficacious concentrations, rank among the panel of GSIs” value in the assay with shed/soluble BCMA is listed as “least”.
Consider `C[C@H](NC(=O)Cc1cc(F)cc(F)c1)C(=O)N[C@H](C(=O)OC(C)(C)C)c1ccccc1` [DAPT], for which the “cell surface expression of BCMA (in words)” value in assay [1] is listed as “strongly enhances”. The EC50 in the assay on shed/soluble BCMA (MM1.S, MM1S cells) worked out at 144 nM; with shed/soluble BCMA (NCI-H929, H929 cells), 220 nM; in the assay on shed/soluble BCMA (U266B1 cells) it was 459 nM; with membrane BCMA expression (MM1.S, MM1S cells) it was 97.4 nM; with membrane BCMA expression (NCI-H929, H929 cells), 145 nM; with membrane BCMA expression (U266B1 cells), 401 nM.
In the case of `CC(C)[C@H](O)C(=O)N[C@@H](C)C(=O)N[C@@H]1C(=O)N(C)CCc2ccccc21` [LY-450139, (S)-2-hydroxy-3-methyl-N—((S)-1-(((S)-3-methyl-2-oxo-2,3,4,5-tetrahydro-1H-benzo[d]azepin-1-yl)amino)-1-oxopropan-2-yl)butanamide], the EC50 was determined as 65 nM in the assay on shed/soluble BCMA (MM1.S, MM1S cells); 99.9 nM in the assay with shed/soluble BCMA (NCI-H929, H929 cells); 236 nM in the assay with shed/soluble BCMA (U266B1 cells); 40.7 nM in the assay on membrane BCMA expression (MM1.S, MM1S cells); 54.8 nM with membrane BCMA expression (NCI-H929, H929 cells); 190 nM in the assay on membrane BCMA expression (U266B1 cells).
For the compound `C[C@H](NC(=O)[C@@H](O)c1cc(F)cc(F)c1)C(=O)N[C@@H]1C(=O)N(C)c2ccccc2-c2ccccc21` [LY-411575, (S)-2-((S)-2-(3,5-difluorophenyl)-2-hydroxyacetamido)-N—((S)-5-methyl-6-oxo-6,7-dihydro-5H-dibenzo[b,c]azepin-7-yl)propanamide], in assay [1], the “cell surface expression of BCMA (in words)” value was “strongly enhances”. The EC50 with shed/soluble BCMA (MM1.S, MM1S cells) is 0.1 nM; in the assay with shed/soluble BCMA (NCI-H929, H929 cells) it was 0.2 nM; with shed/soluble BCMA (U266B1 cells), 0.1 nM; with membrane BCMA expression (NCI-H929, H929 cells), 0.1 nM; in the assay on membrane BCMA expression (U266B1 cells) it was 0.1 nM. For the same compound, the “efficacious concentrations, rank among the panel of GSIs” value with shed/soluble BCMA is on record as “most potent”. Also, the “secreted BCMA” value with soluble BCMA was 200 pg/mL.
